{"source": "patent US20250327032A1", "about": "“AGENT FOR AVOIDING IMMUNE RESPONSE OF TRANSGENIC CELLS” (HYPERION DRUG DISCOVERY CO., LTD., priority 2021, published 2025)", "key": {"[1]": {"tested_on": "TNF-α", "assay": "TNF-α expression level (qPCR) after introduction of GFP-tagged CAR-T plasmid", "format": "cell-based, human", "conditions": "Jurkat E6.1; JSH-23 0.1 μM; compared to CAR-T plasmid introduced without JSH-23", "experimental": "(§1) Human leukemia T cells (Jurkat E6.1) were seeded in a 6-well plate to be about 10,000 cells/cm^2. As a culture solution, RPMI1640 medium comprising 10% bovine serum was used. To this, 0.1 μM of JSH-23 was added, or for comparison, 0.1% (v/v) DMSO instead of JSH-23 was added and used.\n(§2) A lipofection solution was prepared by adding Lipofectamine 2000 and GFP-tagged CAR-T plasmid to OptiMEM. The amount of plasmid was prepared to be 1 pg/cell. The prepared lipofection solution was mixed well according to the manufacturer's recommended protocol and allowed to stand at room temperature for about 15 minutes.\nNext, the lipofection solution was added to the plate seeded with human leukemia T cells, and cultured in a CO2 incubator at 37° C. for about 1 day (18 hours). After culturing, all the culture solution comprising the lipofection solution was removed and replaced with a new culture solution having the same composition as before the addition of the lipofection solution. […]\ncDNA was synthesized from the purified RNA using SuperScript™ III Reverse Transcriptase according to the manufacturer's protocol. qPCR was performed using the synthesized cDNA and PCR primers as well as PowerTrack™ SYBR Green Master Mix. The measured Ct value of TNF-α was normalized with the Ct value of β-actin, a housekeeping gene."}, "[2]": {"tested_on": "Human leukemia T cells (Jurkat E6.1)", "assay": "Introduction of GFP-tagged CAR-T plasmid by lipofection, yield of GFP-positive cells", "format": "cell-based", "conditions": "JSH-23 0.1 μM; GFP-tagged CAR-T plasmid 1 pg/cell", "experimental": "as §1\nas §2, with “amount of CAR-T plasmid was” for “amount of plasmid was”\nNext, the lipofection solution was added to the plate seeded with human leukemia T cells, and cultured in a CO2 incubator at 37° C. for about 1 day (18 hours). […]\n(§3) Twenty-four hours after the final introduction of genes, the cells were collected and centrifuged at 800 rpm for 5 minutes using a centrifuge, to collect the cells. The collected cells were counted using a hemocytometer. Furthermore, the GFP-positive percentage of the collected cells was measured using a flow cytometer. The yield of the number of GFP-positive cells was calculated from the number of cells counted and the GFP-positive percentage."}, "[3]": {"tested_on": "human mesenchymal stem cells", "assay": "Introduction of TERT mRNA by lipofection, number of viable cells", "format": "cell-based", "conditions": "JSH-23 1 μM, 10 pg/cell", "experimental": "(§4) Human mesenchymal stem cells were seeded in a 6-well plate to be about 10,000 cells/cm^2. Human myoblasts were seeded in another 6-well plate to be about 20,000 cells/cm^2. As a culture solution, a basal medium for each cell supplemented with 1 μM of JSH-23 was used. As a control, a basal medium for each cell supplemented with 0.1% (v/v) DMSO instead of JSH-23 was used as a culture solution.\n(§5) A lipofection solution was prepared by adding Lipofectamine RNAiMAX and TERT mRNA to OptiMEM. As the TERT mRNA, that containing uridine, or that containing pseudouridine instead of uridine was used. It was prepared so that the amount of mRNA was 10 pg/cell for human mesenchymal stem cells and 5 pg/cell for human myoblasts. The prepared lipofection solution was mixed well according to the manufacturer's recommended protocol and allowed to stand at room temperature for about 15 minutes.\n(§6) Next, each lipofection solution was added to the plate seeded with human mesenchymal stem cells or human myoblasts, and cultured in a CO2 incubator at 37° C. for about 1 day (18 hours) (human mesenchymal stem cells) or for 2 days (42 hours) (human myoblasts). After culturing, all the culture solution comprising the lipofection solution was removed and replaced with a new culture solution having the same composition as before the addition of the lipofection solution.\n(§7) After another 6 hours, the above lipofection solution was newly prepared, added again to the plate seeded with human mesenchymal stem cells or human myoblasts, and cultured in a CO2 incubator at 37° C. for about 1 day (18 hours) (mesenchymal stem cells) or about 2 days (42 hours) (human myoblasts). These steps were repeated so that the introduction of genes was performed a total of 4 times.\n(§8) Twenty-four hours after the final introduction of genes, the cells were detached with a cell detachment solution, centrifuged at 600×g for 5 minutes using a centrifuge, to collect the cells. The collected cells were counted using a hemocytometer."}, "[4]": {"tested_on": "human myoblasts", "assay": "Introduction of TERT mRNA by lipofection, number of viable cells", "format": "cell-based", "conditions": "JSH-23 1 μM, 5 pg/cell", "experimental": "as §4, §5, §6, §7, §8"}, "[5]": {"tested_on": "human mesenchymal stem cells", "assay": "Introduction of increased amount of GFP mRNA (20 pg/cell), yield of GFP-positive cells", "format": "cell-based", "conditions": "JSH-23 1 μM, versus 20 pg/cell without JSH-23", "experimental": "Human mesenchymal stem cells were seeded in a 6-well plate to be about 10,000 cells/cm^2. As a culture solution, αMEM (+10% serum) supplemented with 1 μM of JSH-23 or αMEM (+10% serum) supplemented with 0.1% (v/v) DMSO instead of JSH-23 was used.\nA lipofection solution was prepared by adding Lipofectamine RNAiMAX and fluorescent protein GFP mRNA to OptiMEM. It was prepared so that the amount of mRNA was 10 pg/cell or 20 pg/cell. The prepared lipofection solution was mixed well according to the manufacturer's recommended protocol and allowed to stand at room temperature for about 15 minutes.\nNext, a lipofection solution prepared so that the amount of mRNA was 20 pg/cell was added to a plate that used, as a culture solution, αMEM (+10% serum) supplemented with DMSO or JSH-23, respectively. […]\nas §3, with “detached with a cell detachment solution,” for “collected and”, “600×g” for “800 rpm”"}, "[6]": {"conditions": "TERT mRNA containing pseudouridine instead of uridine"}}, "data": [{"smiles": "Cc1ccc(NCCCc2ccccc2)c(N)c1", "note": "[JSH-23]", "values": [{"measurement": "increase in the expression level of TNF-α", "setting": "[1]", "value": "reduced"}, {"measurement": "number of GFP-positive cells compared to the control (control set to 1)", "setting": "[2]", "value": "≥ 2", "unit": "times"}, {"measurement": "yield (number of viable cells) compared to the control (control set to 1)", "setting": "[3]; [6]", "value": "≥ 1.3", "unit": "times"}, {"measurement": "yield (number of viable cells) compared to the control (control set to 1)", "setting": "[3]; TERT mRNA containing uridine", "value": "≥ 1.5", "unit": "times"}, {"measurement": "yield (number of viable cells) compared to the control (control set to 1)", "setting": "[4]; [6]", "value": "≥ 5", "unit": "times"}, {"measurement": "yield (number of viable cells) compared to the control (control set to 1)", "setting": "[4]; TERT mRNA containing uridine", "value": "≥ 7", "unit": "times"}, {"measurement": "number of GFP-positive cells", "setting": "[5]", "value": "increased"}]}]}
